Assay [1] has as its target galactose oxidase (GAO, EC 1.1.3.9) (Gibberella zeae, UniProt P0CS93). The class given is biochemical. The following applies: GAO biosensor, benzylpenicillin concentration 1000 ppb in milk, glucose and galactose 1.4 mM, 38° C.
In assay [2] the target is glucose oxidase (GOD, EC 1.1.3.4.) (Aspergillus niger, UniProt P13006). Nature of the assay: GOD biosensor: oxygen decrease during glucose oxidation in hydrolysed milk with added antibiotic. The following applies: benzylpenicillin concentration 1000 ppb in milk, glucose and galactose 1.4 mM, 38° C. The class given is biochemical.
glucose oxidase (GOD, EC 1.1.3.4.), sequence (P13006 17-605, species assumed): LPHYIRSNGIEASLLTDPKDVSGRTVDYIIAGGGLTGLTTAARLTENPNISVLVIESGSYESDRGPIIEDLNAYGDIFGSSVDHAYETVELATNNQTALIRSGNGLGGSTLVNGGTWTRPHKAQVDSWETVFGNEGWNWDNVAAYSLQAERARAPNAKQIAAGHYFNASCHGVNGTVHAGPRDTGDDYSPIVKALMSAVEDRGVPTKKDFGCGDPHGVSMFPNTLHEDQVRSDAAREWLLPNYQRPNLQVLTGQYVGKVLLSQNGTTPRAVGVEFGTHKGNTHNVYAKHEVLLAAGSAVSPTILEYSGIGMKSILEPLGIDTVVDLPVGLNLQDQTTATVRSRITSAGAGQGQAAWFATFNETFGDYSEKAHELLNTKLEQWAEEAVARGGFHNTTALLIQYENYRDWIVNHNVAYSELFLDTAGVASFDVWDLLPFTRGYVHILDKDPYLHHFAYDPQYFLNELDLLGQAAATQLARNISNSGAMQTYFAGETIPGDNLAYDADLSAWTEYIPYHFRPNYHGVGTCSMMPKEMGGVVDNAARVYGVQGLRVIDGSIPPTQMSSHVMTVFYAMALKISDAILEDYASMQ

galactose oxidase (GAO, EC 1.1.3.9), sequence (P0CS93 42-680 limits assumed): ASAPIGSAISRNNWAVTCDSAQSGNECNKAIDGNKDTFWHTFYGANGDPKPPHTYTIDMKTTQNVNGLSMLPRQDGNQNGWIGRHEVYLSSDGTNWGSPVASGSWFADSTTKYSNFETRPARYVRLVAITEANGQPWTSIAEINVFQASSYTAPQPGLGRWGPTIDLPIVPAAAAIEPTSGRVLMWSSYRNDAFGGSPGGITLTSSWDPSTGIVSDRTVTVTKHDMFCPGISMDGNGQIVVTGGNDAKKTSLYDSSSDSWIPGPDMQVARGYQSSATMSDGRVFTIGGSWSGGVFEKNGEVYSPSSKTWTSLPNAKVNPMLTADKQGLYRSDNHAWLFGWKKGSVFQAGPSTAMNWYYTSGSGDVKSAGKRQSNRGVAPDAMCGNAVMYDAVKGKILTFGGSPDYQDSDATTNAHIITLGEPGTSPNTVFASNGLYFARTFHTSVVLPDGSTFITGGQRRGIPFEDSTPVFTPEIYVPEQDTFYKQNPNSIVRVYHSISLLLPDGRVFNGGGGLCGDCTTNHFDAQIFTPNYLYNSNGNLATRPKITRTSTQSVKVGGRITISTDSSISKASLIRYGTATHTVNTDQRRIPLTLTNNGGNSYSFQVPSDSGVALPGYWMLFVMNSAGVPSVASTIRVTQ

On to `CC1(C)S[C@@H]2[C@H](NC(=O)Cc3ccccc3)C(=O)N2[C@H]1C(=O)O` [benzylpenicillin], for which the “steady state parameter A” value is reported as 0.435 in assay [1] (antibiotics-free milk A=0.640) and 0.141 in assay [2] (antibiotics-free milk A=0.159). The “kinetic parameter B” value turned out to be 97.8 s⁻¹ in assay [1] (antibiotics-free milk B=53.0) and 146.0 s⁻¹ in assay [2] (antibiotics-free milk B=222.2).
